In article PMC12406204 (Journal of Medicinal Chemistry, 2025):
Like-named read-outs stand apart in the source and are kept apart here.

How the values were obtained:
[1] = target: CB1R (Homo sapiens, UniProt P21554); parameters: host or cells: CHO-CB1 C3 cell line
[2] = target: T1, CB2R (Homo sapiens, UniProt P34972); parameters: expressed in transfected cells; host or cells: HEK-293T (HEK-CB2 cell line)
[3] = target: T1, CB2R; experiment: CB2R cAMP determination after forskolin stimulation in transfected HEK-293T cells; format: cell-based; parameters: expressed in transfected cells; host or cells: HEK-293T, transient transfection (PEI)
Experimental: (§1) Initially we tested their ability to modify CB2R-mediated cAMP accumulation, providing insights into their functional behavior as either agonists or antagonists (Table ). Moreover, the signaling profiles of selected ligands were investigated through their impact on β-arrestin recruitment and Mitogen-Activated Protein Kinase (MAPK) phosphorylation pathway, enabling a more comprehensive evaluation of their intracellular signaling profiles (Table ).
HEK-293T cells were grown in Dulbecco’s Modified Eagle’s Medium (DMEM) medium (Gibco, Paisley, Scotland, United Kingdom) supplemented with 2 mM L-glutamine, 100 U/mL penicillin/streptomycin, MEM Non-Essential Amino Acids Solution (1/100) and 5% (v/v) heat inactivated Fetal Bovine Serum (FBS) (Invitrogen, Paisley, Scotland, United Kingdom). Cells were maintained in a humid atmosphere of 5% CO2 at 37 °C. Cells were transiently transfected with the PEI (Polyethylenimine, Sigma, St. Louis, MO, United States) method as previously described and used for functional assays 48 h later.
Signaling experiments have been performed as previously described. Two hours before initiating the experiment, HEK-293T cell-culture medium was replaced by serum-starved DMEM medium. Then, cells were detached, resuspended in growing medium containing […] zardaverine (Tocris, Bristol, U.K.) and placed in 384-well microplates (2500 cells/well). Cells were pretreated (15 min) with cannabinoid compounds (1 nM to 100 μM) -or vehicle- before adding […] forskolin (Tocris, Bristol, U.K.) to induce cAMP accumulation. Readings were performed after 15 min incubation at 25 °C. Homogeneous Time Resolved Fluorescence (HTRF) energy transfer measures were performed using the Lance Ultra cAMP kit (PerkinElmer, Waltham, MA, United States). Fluorescence at 665 nm was analyzed in a PHERA star Flagship microplate reader equipped with an HTRF optical module (BMG Lab Technologies, Offenburg, Germany).

[4] = target: T1, CB2R; experiment: CB2R β-arrestin recruitment; format: cell-based; parameters: expressed in transfected cells; host or cells: HEK-293T, transient transfection (PEI)
Excerpt: as §1
(§2) JWH-133, a well-known nonbiased (balanced) agonist, was employed as the reference for comparing the signaling profiles of the tested compounds. An operational model analysis was applied to quantify the functional bias of each CB2R-selective agonist. This involved calculating the bias factor by comparing the signaling pathways: β-arrestin versus cAMP, MAPK versus cAMP, and β-arrestin versus MAPK.

[5] = target: T1, CB2R; experiment: CB2R MAPK phosphorylation; format: cell-based; parameters: expressed in transfected cells; host or cells: HEK-293T, transient transfection (PEI)
Excerpt: as §1, §2

[6] = read-out: CB1R Ki; abused SCRAs and N-methyl analogues, earlier study of the authors; cited from earlier work
[7] = read-out: CB2R Ki; abused SCRAs and N-methyl analogues, earlier study of the authors; cited from earlier work
[8] = at 1 μM, earlier study of the authors; cited from earlier work

T1 sequence (P34972 whole entry): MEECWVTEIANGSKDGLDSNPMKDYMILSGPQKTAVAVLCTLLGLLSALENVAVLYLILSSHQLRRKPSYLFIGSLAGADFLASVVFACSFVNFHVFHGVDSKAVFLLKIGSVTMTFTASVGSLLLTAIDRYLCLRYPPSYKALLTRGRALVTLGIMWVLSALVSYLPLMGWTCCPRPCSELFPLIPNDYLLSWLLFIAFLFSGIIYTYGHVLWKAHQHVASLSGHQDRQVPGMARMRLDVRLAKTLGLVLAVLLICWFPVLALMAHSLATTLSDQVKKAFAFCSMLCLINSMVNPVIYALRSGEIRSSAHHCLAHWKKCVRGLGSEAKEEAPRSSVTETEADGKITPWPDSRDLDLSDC
Sequence of CB1R (P21554 whole entry): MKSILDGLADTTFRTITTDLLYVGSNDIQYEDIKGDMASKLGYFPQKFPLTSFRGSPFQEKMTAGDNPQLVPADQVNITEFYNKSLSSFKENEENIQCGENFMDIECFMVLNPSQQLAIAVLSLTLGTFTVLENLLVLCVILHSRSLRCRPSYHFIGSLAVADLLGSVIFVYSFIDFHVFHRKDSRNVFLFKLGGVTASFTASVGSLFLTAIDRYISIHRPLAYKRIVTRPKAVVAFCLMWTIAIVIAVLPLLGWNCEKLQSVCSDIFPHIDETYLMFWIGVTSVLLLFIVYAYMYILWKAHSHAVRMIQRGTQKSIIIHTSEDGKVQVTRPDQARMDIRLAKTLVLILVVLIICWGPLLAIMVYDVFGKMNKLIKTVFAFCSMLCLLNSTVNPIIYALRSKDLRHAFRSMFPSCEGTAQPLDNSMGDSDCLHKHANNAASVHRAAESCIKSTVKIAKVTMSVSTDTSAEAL

Structure (SMILES) | Ki [1, 6] | Ki [2, 7] | other results
CCCCCn1nc(C(=O)N[C@H](C(N)=O)C(C)C)c2ccccc21 [compound 5, AB-PINACA] | 1.16 nM | 0.94 nM | –
CC(C)(C)[C@H](NC(=O)c1cn(CC2CCCCC2)c2ccccc12)C(N)=O [compound 9, ADB-CHMICA] | 1.1 nM | 0.76 nM | –
CCCC(C)(C)c1ccc2c(c1)OC(C)(C)[C@@H]1CC=C(C)C[C@@H]21 [JWH-133, reference compound] | – | – | CB2R Emax AMPc ([3]; normalized to maximal efficacious concentration of CP 55,940): 98%; EC50 ([3]; transfected HEK-293T cells, forskolin-stimulated cAMP, read-out: CB2R EC50 AMPc): 6.73 ± 0.5 nM; EC50 [4]: 1.34 ± 0.05 nM; CB2R Emax β-arrestin ([4]; normalized to CP 55,940): 93%; EC50 [5]: 2.7 ± 0.19 nM; CB2R Emax MAPK ([5]; normalized to CP 55,940): 98%
CN(CC(N)=O)C(=O)c1nn(CC2CCCCC2)c2ccccc12 [compound 14] | – | 482 nM | CB1R % (1 μM) [1, 8]: 21%
COC(=O)[C@@H](NC(=O)c1nn(CCCCCF)c2ccccc12)C(C)(C)C [compound 1, 5F-MDMB-PINACA] | 0.8 nM | 0.1 nM | –
CC(C)[C@H](NC(=O)c1cn(CCCCCF)c2ccccc12)C(N)=O [compound 7, 5F-AB-PICA] | 14.8 nM | 8.6 nM | –
COC(=O)CNC(=O)c1nn(Cc2ccc(F)cc2)c2ccccc12 [compound 11] | 181 nM | 125 nM | –
CC(C)[C@H](NC(=O)c1nn(CC2CCCCC2)c2ccccc12)C(N)=O [compound 6] | 0.9 nM | 1.1 nM | –
COC(=O)[C@@H](NC(=O)c1nn(Cc2ccc(F)cc2)c2ccccc12)C(C)(C)C [compound 2, MDMB-FUBINACA] | 0.83 nM | 0.3 nM | –
COC(=O)[C@@H](NC(=O)c1cn(Cc2ccc(F)cc2)c2ccccc12)C(C)C [compound 4, AMB-FUBICA] | – | – | Ki ([1]; abused SCRAs and N-methyl analogues, earlier study of the authors; read-out: CB1R Ki; cited from earlier work): 47.8 nM; Ki ([2]; abused SCRAs and N-methyl analogues, earlier study of the authors; read-out: CB2R Ki; cited from earlier work): 20 nM
CC(C)(C)[C@H](NC(=O)c1cn(Cc2ccc(F)cc2)c2ccccc12)C(N)=O [compound 10, ADB-FUBICA] | 53.8 nM | 5.15 nM | –
NC(=O)CNC(=O)c1nn(CC2CCCCC2)c2ccccc12 [compound 13] | 268 nM | 171 nM | –
CC(C)[C@H](NC(=O)c1cn(Cc2ccc(F)cc2)c2ccccc12)C(N)=O [compound 8, AB-FUBICA] | 35.2 nM | 83.2 nM | –
COC(=O)CN(C)C(=O)c1nn(Cc2ccc(F)cc2)c2ccccc12 [compound 12] | – | 540 nM | CB1R % (1 μM) [1, 8]: 33%
COC(=O)[C@@H](NC(=O)c1cn(CC2CCCCC2)c2ccccc12)C(C)C [compound 3, AMB-CHMICA] | 10.5 nM | 3.44 nM | –
